Results on three molecules are retold here after patent publication US6624150B2, “Method of treating gastrointestinal tract disease with purinergic receptor agonists” (Inspire Pharmaceuticals, Inc., priority 1999, dated 2003).

Assay [1] has as its system T84 cells. The assay can be described thus: Intracellular calcium mobilization (Fluo-3 AM, FLIPR) in T84 cells. As to conditions: T84 human colonic epithelial cell line; FIG. 5. In kind it is cell-based. The source says: In addition, the pharmaceutical utility of P2Y agonist compounds of this invention are indicated by the intracellular calcium mobilization assay for P2Y activity. In this assay, cultured cells are stimulated with the increasing concentrations of P2Y receptor agonists. Intracellular calcium levels are monitored by measuring the changes in fluorescence intensity of a calcium-sensitive dye using the FLIPR (Molecular Devices Corp., Sunnyvale, Calif.) or equivalent instrumentation. A conventional technique is used to detect intracellular calcium mobilization induced by P2Y receptor agonists. The technique is familiar to those well versed in the art. Cells are seeded in 96-well plates and used for calcium mobilization assays. On the day of the assay, the growth medium is aspirated and replaced with a solution of Fluo-3 AM (2.5 μM final concentration) in an assay buffer consisting of (mM): KCI (10.0), NaCl (118), CaCl2(2.5), MgCl2 (1.0), HEPES (20), glucose (10), pH 7.4. Probenecid (Sigma Chemical Co.) is added to the dye load and dye wash medium at a working concentration of 2.5mM to increase dye retention in the cells. After a 60 minute incubation with Fluo-3 AM at 25° C., cells are washed free of dye (Columbus Plate Washer, TECAN U.S., Inc., Research Triangle Park, N.C.) and are stimulated with increasing concentrations of P2Y receptor agonists. Intracellular calcium levels are simultaneously monitored in each well by measuring the changes in fluorescence intensity using the FLIPR (Molecular Devices Corp., Sunnyvale, Calif.). T84 cells, a human colonic epithelial cell line, were subjected to the calcium mobilization assay described above. […] The activation of intracellular calcium mobilization by ATP and UTP in T84 and HT-29 cells indicate the pharmaceutical utility of P2Y receptor agonists in the gastrointestinal tract.

The subject of assay [2] is HT-29 cells. The assay can be described thus: Intracellular calcium mobilization (Fluo-3 AM, FLIPR) in HT-29 cells. The assay is classed as cell-based. As to conditions: human colonic HT-29 cells; FIG. 6. An excerpt: In addition, the pharmaceutical utility of P2Y agonist compounds of this invention are indicated by the intracellular calcium mobilization assay for P2Y activity. In this assay, cultured cells are stimulated with the increasing concentrations of P2Y receptor agonists. Intracellular calcium levels are monitored by measuring the changes in fluorescence intensity of a calcium-sensitive dye using the FLIPR (Molecular Devices Corp., Sunnyvale, Calif.) or equivalent instrumentation. A conventional technique is used to detect intracellular calcium mobilization induced by P2Y receptor agonists. The technique is familiar to those well versed in the art. Cells are seeded in 96-well plates and used for calcium mobilization assays. On the day of the assay, the growth medium is aspirated and replaced with a solution of Fluo-3 AM (2.5 μM final concentration) in an assay buffer consisting of (mM): KCI (10.0), NaCl (118), CaCl2(2.5), MgCl2 (1.0), HEPES (20), glucose (10), pH 7.4. Probenecid (Sigma Chemical Co.) is added to the dye load and dye wash medium at a working concentration of 2.5mM to increase dye retention in the cells. […] Intracellular calcium levels are simultaneously monitored in each well by measuring the changes in fluorescence intensity using the FLIPR (Molecular Devices Corp., Sunnyvale, Calif.). […]
For orientation: Calcium assays in cells follow changes in intracellular calcium, usually with a dye or a luminescent sensor.

Assay [3] has as its system Goblet cells. The settings on record: Goblet cells in vitro; Lethem et al. 1993; cited from earlier work.
The test system of assay [4] is HT-29 cells. The settings on record: Otero et al. Mol Cell Biochem 2000; cited from earlier work.

Take `Nc1ncnc2c1ncn2[C@@H]1O[C@H](COP(=O)(O)OP(=O)(O)OP(=O)(O)O)[C@@H](O)[C@H]1O` [ATP, 5′-adenosine triphosphate]: in assay [1], the calcium mobilization result is reported as “stimulate calcium mobilization”. In addition, in assay [2], the “calcium mobilization (P2Y response)” value is “robust P2Y response”.
For the molecule `O=c1ccn([C@@H]2O[C@H](COP(=O)(O)OP(=O)(O)OP(=O)(O)O)[C@@H](O)[C@H]2O)c(=O)[nH]1` [UTP, uridine 5′-triphosphate], the calcium mobilization entry in assay [1] was “stimulate calcium mobilization”; in assay [4], “stimulated calcium mobilization”. Moreover, in assay [2], the “calcium mobilization (P2Y response)” value was “robust P2Y response”. Besides, the “rate and total amount of mucin secretion” value in assay [3] is “increase both the rate and total amount of mucin secretion”.
For `CSc1nc(N)c2ncn([C@@H]3O[C@H](COP(=O)(O)OP(=O)(O)O)[C@@H](O)[C@H]3O)c2n1` [2-methylthioADP], the calcium mobilization result in assay [1] is reported as “did not simulate calcium mobilization”.
